In patent US9868707B2, “Small molecule agonists of neurotensin receptor 1” (SANFORD-BURNHAM MEDICAL RESEARCH INSTITUTE, priority 2012, dated 2018):

Target: NTR1 (Homo sapiens, UniProt P30989)
Experiment: NTR1 high-content imaging (HCS) dose response, NTR1-U2OS cells
Type: cell-based
Design: host or cells: U2OS osteosarcoma
Conditions: n = 4 unless otherwise noted; for EC50: Ave. ± S.E.M., read-out: HCS NTR1 Potency EC50; for Emax: read-out: HCS NTR1 Potency Emax
From the text: The cell lines utilized in the high-content imaging assays, which include the NTR1-, NTR2-, and GPR35-U2OS osteosarcomas, were obtained from the laboratory of Dr. Lawrence Barak at the Duke University Medical Center. The media used in the culture of the cell lines, as well as the assays themselves, consisted of Minimum Essential Medium (15-010-CM) and L-glutamine (25-005-CL) from Cellgro/Mediatech (Manassas, Va.), fetal bovine serum (SH30396.03) from Hyclone (Logan, Utah), penicillin-streptomycin solution (PS-20) from Omega Scientific in Tarzana, Calif., G418 (ant-gn-1) from Invivogen (San Diego, Calif.), and zeocin (R250-01) from Invitrogen (Carlsbad, Calif.). Cell lines were cultured in T225 tissue culture flasks (431082) supplied by Corning (Corning, N.Y.). Additional reagents employed include Dulbecco's Phosphate-Buffered Saline (DPBS) (21-031CV) from Cellgro/Mediatech, Trypsin-EDTA 0.05% (25300) from Invitrogen, paraformaldehyde (30528954) from Acros Organics (Geel, Belgium), Hoechst 33342 (H3570) from Invitrogen. The high-content assays were run in 1536-well plates (29326) supplied by Aurora Biotechnology (Poway, Calif.) and utilized aluminum plate seals (T592100) from E&K Scientific (Santa Clara, Calif.).
The neurotensin 1 peptide (N6383) from Sigma-Aldrich (St. Louis, Mo.) was used as a positive control in the NTR1 primary HCS assay. For the NTR2 selectivity assay, the non-specific, small molecule 3-(4-fluorophenyl)-7,8-dimethoxy-5-(4-methylbenzyl)-5H-pyrazolo[4,3-c]quinolone which was synthesized internally was used as a positive control. The GPR35 selectivity screen utilized zaprinast (ALX430-020-M010) from Alexis Biochemicals (Farmingdale, N.Y.) as a control.
The high-content imaging based NTR1 primary screen in 1536-well format was utilized to assay the MLSMR library of chemical entities in the following manner. On day one, 4 uL of a cell suspension containing 350,000 NTR1-U2OS cells per mL is added to each well of a 1536-well assay plate. Cells are plated in MEM medium containing 2.5% Fetal Bovine Serum, 1% Penicillin/Streptomycin solution, 1% L-Glutamine, 400 ug/mL G418, and 200 ug/mL Zeocin. The assay plates are then incubated overnight at 37° C., under 5% CO2. Following the overnight incubation, a volume of 60 nL of the compounds at 2 mM in DMSO (final 20 μM, 1% DMSO) was transferred to columns 5-48 of the assay plates using a LabCyte Echo Liquid Handler. Next, 60 nL of DMSO were dispensed to columns 1-4, which served as the positive and neutral control wells. […] The assay plates were centrifuged on an Eppendorf 5810 centrifuge at 1000 rpm for 1 min to ensure even liquid levels in the wells of the assay plates. The assay plates were then returned to the incubator for 1 hour. Following the hour-long incubation at 37° C., the cells in each well were fixed with 4 uL of 6% paraformaldehyde added with a Multidrop Combi. The assay plates were centrifuged as before and incubated at room temperature for 1 hour. On the Kalypsys, plates were then aspirated down to 2.5 uL per well and washed twice with 11 uL per well of DPBS, followed by a final aspiration to 2.5 uL per well. On the Combi dispenser, 5 uL of 5 ug/mL Hoechst 33342 diluted in DPBS was added to each well of assay plates. The plates were again centrifuged as previously described, sealed, and incubated for at least 1 hour prior to being loaded on a PerkinElmer Opera QEHS.
Image acquisition was performed with a 45 plate capacity loader/stacker and the following settings: 40×0.6 NA air objective, acquisition camera set to 2-by-2 binning for an image size of 688 by 512 pixels, beta-arrestin-GFP acquired using 488 nm laser excitation and 540/75 nm emission filters, DAPI (nuclei) using 365 nm Xenon lamp excitation and 450/50 nm emission filters, 3 fields per well. Image analysis was performed using the Acapella Spot Detection Algorithm. For analysis settings and the metrics employed in the data analyses, please refer to supplemental information.

Sequence of NTR1 (P30989 whole entry, species assumed): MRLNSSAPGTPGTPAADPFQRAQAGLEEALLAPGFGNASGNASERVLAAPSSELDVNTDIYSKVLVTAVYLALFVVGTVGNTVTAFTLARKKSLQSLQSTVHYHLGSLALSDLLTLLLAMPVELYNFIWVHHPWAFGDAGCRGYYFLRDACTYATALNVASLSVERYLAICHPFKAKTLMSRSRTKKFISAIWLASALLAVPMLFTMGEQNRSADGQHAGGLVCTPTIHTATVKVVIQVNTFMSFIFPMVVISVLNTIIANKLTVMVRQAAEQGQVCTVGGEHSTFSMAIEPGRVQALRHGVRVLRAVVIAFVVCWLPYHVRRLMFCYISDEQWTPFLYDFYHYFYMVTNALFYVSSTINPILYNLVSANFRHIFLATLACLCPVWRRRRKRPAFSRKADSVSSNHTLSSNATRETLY

`COc1ccccc1CN1CCN(c2nc(C3CC3)nc3cc(OC)c(OC)cc23)CC1` [Compound 343, 2-cyclopropyl-6,7-dimethoxy-4-(4-(2-methoxybenzyl)piperazin-1-yl)quinazoline] showed an EC50 of 34.9 ± 4.4 µM and an Emax of 100%.
For `COc1cc2nc(C3CC3)nc(N3CCN(C(=O)c4ccccc4)CC3)c2cc1OC` [Compound 344, (4-(2-cyclopropyl-6,7-dimethoxyquinazolin-4-yl)piperazin-1-yl)(phenyl)methanone], the EC50 was 45.3 µM and the Emax was 100%.
`COc1cc2nc(C3CC3)nc(N3CCN(C(=O)c4ccccc4OC)CC3)c2cc1OC` [Compound 345, (4-(2-cyclopropyl-6,7-dimethoxyquinazolin-4-yl)piperazin-1-yl)(2-methoxyphenyl)methanone] showed an EC50 of 67.7 ± 5.5 µM and an Emax of 100%.
